Values of other authors, collected in PMC8875686, “Oral Formulation Based on Irbesartan Nanocrystals Improve Drug Solubility, Absorbability, and Efficacy” (Pharmaceutics, 2022).
In brackets after ≈: the same amount, converted by molar mass.

Assays:
[1] = oral administration
[2] = room temperature

SMILES	average absolute bioavailability (BA) [1]	time of Cmax (peak plasma concentrations) [1] [h]	solubility [2]
CCCCC1=NC2(CCCC2)C(=O)N1Cc1ccc(-c2ccccc2-c2nnn[nH]2)cc1 [IRB, Irbesartan]	60–80%	1.5 to 2	–
CCCCC1=NC2(CCCC2)C(=O)N1Cc1ccc(-c2ccccc2-c2nnn[nH]2)cc1 [form B]	–	–	~0.6 µg/mL (≈ 1.4 µM)
CCCCC1=NC2(CCCC2)C(=O)N1Cc1ccc(-c2ccccc2-c2nnn[nH]2)cc1 [form A]	–	–	approximately 0.011 mg/mL
